# Experimental data published in US10166202B2, “Treatment of hepatic encephalopathy and liver cirrhosis” (Yissum Research Development Company of the Hebrew …, priority 2006, dated 2019).
# “Also recorded” adds a separate entry of the source.
# How the values were obtained:
# AMPK [1] = assay: Hippocampal AMPK phosphorylation (immunoblot) in TAA-induced liver failure mice; type: in vivo
# TAA treated mice [2] = assay: Liver function analysis of blood plasma in TAA treated mice; type: in vivo
# dopamine = assay: Brain catecholamine (dopamine) measurement by HPLC-ECD in TAA treated mice; type: in vivo
# Protocol: (vi) Catecholamine measurements. Catecholamines were measured as described previously (Avraham et al, 1996). The assay for dopamine was performed by High Pressure Liquid Chromatography (HPLC) separation and detection using HPLC-electrochemical detection (ECD). Values are presented as concentration (ng/g tissue).
# glial cells = test system: glial cells; set-up: species or system mice; settings: mouse, in vivo
# TAA treated CB2-KO mice = assay: Blood ALT and AST levels in TAA treated CB2-KO mice; type: in vivo
# Protocol: (ii) Mice. Eight- to 10-week old female Sabra mice (29-32 g), obtained from the animal facility of the Hebrew University, Israel, were assigned at random to different groups of 10 mice per cage and were used in all experiments. All cages contained wood-chip bedding and were placed in a temperature-controlled room at 22° C., on a 12 h light/dark cycle (lights on at 07.00 a.m.). The mice had free access to water 24 h a day. The food provided was Purina chow, the animals were maintained in the animal facility (SPF unit) of the Hebrew University Hadassah Medical School, Jerusalem. CB-2 KO mice were provided by Prof. Zimmer, Institute of Molecular Psychiatry, University of Bonn, Germany.
# (xi) Liver function analysis. Ammonia, bilirubin, ALT, AST, GGT and glucose were analyzed using standard analytical methods in the Hadassah Hospital Biochemistry Department, Jerusalem, Israel.
# TAA treated mice [3] = settings: mouse, in vivo
# BDL mice [4] = assay: Motor function in chronic liver failure induced by bile duct ligation (BDL); type: in vivo; settings: BDL mice relative to sham; cannabidiol 5 mg/kg i.p. daily, evaluated 2 weeks post-surgery
# BDL mice [5] = assay: Cognitive function in chronic liver failure induced by bile duct ligation (BDL); type: in vivo; settings: BDL mice relative to sham; cannabidiol 5 mg/kg i.p. daily, evaluated 2 weeks post-surgery
# malondialdehyde = assay: Oxidative stress (malondialdehyde) in liver tissue of BDL mice; type: in vivo; settings: cannabidiol 5 mg/kg i.p. daily
# IL-1β mRNA = assay: Hippocampal IL-1β mRNA level by RT-PCR in BDL mice; type: in vivo; settings: cannabidiol 5 mg/kg i.p. daily for 3 weeks
# [6] = test system: CB1 and the CB2 receptors; settings: previously known; cited from earlier work
# TAA treated mice [7] = assay: Activity test in TAA treated mice; type: in vivo
# AMPK [8] = assay: Hippocampal AMPK phosphorylation (immunoblot) in control mice; type: in vivo; settings: for hippocampal AMPK phosphorylation (activated AMPK): control mice
# TAA treated mice [9] = assay: Neurological score in TAA treated mice; type: in vivo
# TAA treated mice [10] = assay: Eight-arm maze (cognitive function) in TAA treated mice; type: in vivo
molecule,measurement,setting,value
"NC(=O)c1ncn([C@@H]2O[C@H](CO)[C@@H](O)[C@H]2O)c1N [AICAR, 5-aminoimidazole-4-carboxamide ribonucleoside]",AMPK activation,"AMPK [1]; TAA treated mice, AICAR treatment",augmented AMPK activation
same,alanine transaminase (ALT) level,"TAA treated mice [2]; TAA treated mice, blood",Neither AICAR nor THC ameliorated these markers
same,aspartate aminotransferase (AST) level,"TAA treated mice [2]; TAA treated mice, blood",Neither AICAR nor THC ameliorated these markers
same,ammonia level,"TAA treated mice [2]; TAA treated mice, blood plasma",no effect
same,bilirubin level,"TAA treated mice [2]; TAA treated mice, blood plasma",Neither AICAR nor THC ameliorated these markers
same,gamma-glutamyltransferase (GGT) level,"TAA treated mice [2]; TAA treated mice, blood plasma",Neither AICAR nor THC ameliorated these markers
same,brain dopamine concentration,dopamine,restored levels to normal
Cc1c(C(=O)NN2CCCCC2)nn(-c2ccc(Cl)cc2Cl)c1-c1ccc(Cl)cc1 [SR141716A],"astrogliosis, direction of change (GFAP staining, hippocampus)",glial cells,prevented; also recorded: Decrease (p < 0.001)
same,alanine transaminase (ALT) level,"TAA treated mice [2]; mouse, in vivo",significantly reduced
same,aspartate aminotransferase (AST) level,"TAA treated mice [2]; mouse, in vivo",significantly reduced
same,AST level,TAA treated CB2-KO mice,effective in reducing its level
same,influence of co-administration on the ALT effect of 2-AG,TAA treated CB2-KO mice; 2-AG + SR141716A,blocked the effect of 2-AG
same,influence of co-administration on the AST effect of 2-AG,TAA treated CB2-KO mice; 2-AG + SR141716A,abolished the effect of 2-AG
same,Inflammation (frequency of cells in the liver),TAA treated mice [3],reduced; also recorded: Decreased
same,Regeneration (frequency of cells in the liver),TAA treated mice [3],Increased
C=C(C)[C@@H]1CCC(C)=C[C@H]1c1c(O)cc(CCCCC)cc1O [cannabidiol],motor impairment (motor activity),BDL mice [4],restored; also recorded: reversed
same,cognitive impairment (eight arm maze AUC),BDL mice [5],restored; also recorded: reversed
same,oxidative stress in the liver (malondialdehyde),malondialdehyde,restored; also recorded: reversed
same,IL-1β mRNA level in the hippocampus (normalized to L19 mRNA),IL-1β mRNA,restored; also recorded: reversed
SR144528,alanine transaminase (ALT) level,"TAA treated mice [2]; TAA treated mice, blood",significantly reduced
same,aspartate aminotransferase (AST) level,"TAA treated mice [2]; TAA treated mice, blood",significantly reduced
same,Inflammation (frequency of cells in the liver),TAA treated mice [3],non-significant changes
same,Regeneration (frequency of cells in the liver),TAA treated mice [3],Increased
"CCCCCc1cc(O)c2c(c1)OC(C)(C)[C@@H]1CCC(C)=C[C@@H]21 [THC, (−)-(6aR,10aR)-6,6,9-trimethyl-3-pentyl-6a,7,8,10a-tetrahydro-6H-benzo[c]chromen-1-ol]",hippocampal AMPK phosphorylation (activated AMPK),"AMPK [1]; TAA treated mice, 0.01 mg/kg THC",inactivating effect
same,AMPK activation in brain at end of behavioral studies,"AMPK [1]; TAA treated mice, 0.1 mg/kg THC daily for 5 days, 0.1 mg/kg",activates AMPK; also recorded: Amplification of AMPK activation
same,hippocampal AMPK phosphorylation (activated AMPK),"AMPK [1]; TAA treated mice, 0.1 mg/kg THC, 0.1 mg/kg",AMPK activation was achieved; also recorded: augmented AMPK activation
same,quantity of THC required to activate AMPK,AMPK [1]; experimental hepatic encephalopathy animals,0.1 mg/kg
same,affinity to CB1 versus CB2 receptors,[6],about equal affinity
same,activity performance,TAA treated mice [7],restored
same,hippocampal AMPK phosphorylation (activated AMPK),AMPK [8]; higher concentrations of THC (up to 10 mg/kg),dose dependent elevation in activated enzyme
same,hippocampal AMPK phosphorylation (activated AMPK),AMPK [8]; low levels of THC (less than 0.1 mg/kg),reduced the level of activated AMPK
same,quantity of THC required to activate AMPK,AMPK [8]; healthy animals,10 mg/kg
same,alanine transaminase (ALT) level,"TAA treated mice [2]; mouse, in vivo",Neither AICAR nor THC ameliorated these markers
same,ammonia level,"TAA treated mice [2]; mouse, in vivo",no effect
same,aspartate aminotransferase (AST) level,"TAA treated mice [2]; mouse, in vivo",Neither AICAR nor THC ameliorated these markers
same,bilirubin level,"TAA treated mice [2]; mouse, in vivo",Neither AICAR nor THC ameliorated these markers
same,gamma-glutamyltransferase (GGT) level,"TAA treated mice [2]; mouse, in vivo",Neither AICAR nor THC ameliorated these markers
same,neurological score,TAA treated mice [9],improved
same,brain dopamine concentration,dopamine,restored levels to normal
same,TAA-induced impaired cognitive function (eight arm maze),TAA treated mice [10],improved significantly
CCCCCCC(C)(C)c1cc(OC)c([C@@H]2C=C(CO)[C@@H]3C[C@H]2C3(C)C)c(OC)c1 [HU-308],"astrogliosis, direction of change (GFAP staining, hippocampus)",glial cells,prevented; also recorded: Decrease (p < 0.001)
same,alanine transaminase (ALT) level,"TAA treated mice [2]; TAA treated mice, blood",significantly reduced
same,aspartate aminotransferase (AST) level,"TAA treated mice [2]; TAA treated mice, blood",significantly reduced
same,influence of the co-administered agent on the other agent's reduction of ALT and AST levels,"TAA treated mice [2]; TAA treated mice, co-administration",did not counteract the effect of SR144528
same,Inflammation (frequency of cells in the liver),TAA treated mice [3],reduced; also recorded: Decreased
same,Regeneration (frequency of cells in the liver),TAA treated mice [3],Increased
COc1cc(CNC(=O)CCCC/C=C/C(C)C)ccc1O [capsaicin],"astrogliosis, direction of change (GFAP staining, hippocampus)",glial cells,prevented; also recorded: reduced astrogliosis; also recorded: minimal; also recorded: Decrease (p < 0.001)
same,activity performance,TAA treated mice [7],restored; also recorded: significantly improves
same,alanine transaminase (ALT) level,"TAA treated mice [2]; TAA treated mice, blood",significantly reduces
same,aspartate aminotransferase (AST) level,"TAA treated mice [2]; TAA treated mice, blood",significantly reduces
same,neurological score,TAA treated mice [9],improved; also recorded: significantly improves
same,Apoptosis (frequency of cells showing apoptosis/necrosis in the liver),TAA treated mice [3],amelioration of TAA-induced apoptosis/necrosis reached statistical significance; also recorded: Decreased
same,Inflammation (frequency of cells in the liver),TAA treated mice [3],Decreased
same,Regeneration (frequency of cells in the liver),TAA treated mice [3],significantly less hepatic regeneration; also recorded: Decreased
same,TAA-induced impaired cognitive function (eight arm maze),TAA treated mice [10],improved significantly; also recorded: significantly improves
"CCCCC/C=C\C/C=C\C/C=C\C/C=C\CCCC(=O)OC(CO)CO [2-AG, 2-arachidonoylglycerol]",motor impairment (motor activity),BDL mice [4],failed to reverse
same,cognitive impairment (eight arm maze AUC),BDL mice [5],effectively reversed
same,alanine transaminase (ALT) level,"TAA treated mice [2]; mouse, in vivo",significantly reduced
same,aspartate aminotransferase (AST) level,"TAA treated mice [2]; mouse, in vivo",significantly reduced
same,influence of the co-administered agent on the other agent's reduction of ALT and AST levels,"TAA treated mice [2]; mouse, in vivo",did not counteract the effect of SR141716A or SR144528
same,ALT level,TAA treated CB2-KO mice,modestly but significantly reduced
same,AST level,TAA treated CB2-KO mice,effective in reducing its level
same,Inflammation (frequency of cells in the liver),TAA treated mice [3],Decreased
same,Regeneration (frequency of cells in the liver),TAA treated mice [3],Increased
Oc1cc2c(cc1O)CN(C(=S)NCCc1ccc(Cl)cc1)CCC2 [capsazepine],influence of the co-administered agent on the other agent's reduction of ALT and AST levels,"TAA treated mice [2]; mouse, in vivo",abolishment of the effect of capsaicin
